The record followed here is patent publication US11891387B2, “Monoacylglycerol lipase modulators” (Janssen Pharmaceutica NV, priority 2020, dated 2024).

Molecules are shown by their SMILES.

As a reminder, the IC50 is the concentration needed to halve the response being measured.

In the experiment the target is human MGL from HeLa cells (Homo sapiens (Human), UniProt Q99685). In words: MGL in vitro activity assay: cleavage of [glycerol-1,3-3H]-oleyl glycerol, activated carbon filtration. Type of experiment: biochemical. The settings on record: 300 nM [Glycerol-1,3-3H]-oleyl glycerol, endogenously expressed MGL from HeLa cells, one hour incubation. Here is the method:
The assay used to measure the in vitro activity of MGL is adapted from the assay used for another serine hydrolase (FAAH) described in Wilson et al., 2003 (A high-throughput-compatible assay for determining the activity of fatty acid amide hydrolase. Wilson S J, Lovenberg T W, Barbier A J. Anal Biochem. 2003 Jul. 15; 318(2):270-5.). The assay consists of combining endogenously expressed MGL from HeLa cells with test compounds, adding [glycerol-1,3-^3H]-oleyl glycerol, incubating for one hour, and then measuring the amount of cleaved [1,3-^3H]-glycerol that passes through an activated carbon filter. The amount of cleaved, tritiated glycerol passing through the carbon filter is proportional to the activity of the MGL enzyme in a particular well/test condition.
Standard conditions for this assay combine 300 nM [Glycerol-1,3-^3H]-oleyl glycerol with human MGL from HeLa cells and test compounds for one hour, after which the reaction is filtered through activated carbon and tritium is measured in the flow through. The test compound concentration in screening mode is 10 μM, while the highest compound concentration in IC50 assays is determined empirically. MGL is the predominant hydrolase in HeLa cells/cell homogenates.

Chain of human MGL from HeLa cells (Q99685 whole entry): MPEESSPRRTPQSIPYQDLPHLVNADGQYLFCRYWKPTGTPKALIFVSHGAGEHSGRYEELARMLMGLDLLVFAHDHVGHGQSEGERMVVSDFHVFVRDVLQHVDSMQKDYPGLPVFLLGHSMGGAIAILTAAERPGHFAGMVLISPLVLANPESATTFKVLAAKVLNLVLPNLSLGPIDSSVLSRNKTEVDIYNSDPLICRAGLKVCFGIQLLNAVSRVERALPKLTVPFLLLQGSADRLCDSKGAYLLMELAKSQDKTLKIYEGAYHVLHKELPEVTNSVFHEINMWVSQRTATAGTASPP

`Cn1nc(C(F)(F)F)cc1-c1c2c(nn1C)[C@@H]1CCC[C@H](C2)N1C(=O)c1ccc2c(c1)OCCC2` (stereo in doubt) [Example 75, Chroman-7-yl((5R,9S)-2-methyl-3-(1-methyl-3-(trifluoromethyl)-1H-pyrazol-5-yl)-4,5,6,7,8,9-hexahydro-2H-5,9-epiminocycloocta[c]pyrazol-10-yl)methanone] registered an IC50 of 44 nM.

In turn, `Cc1ccc2c(C(=O)N3CCc4c(nn(C)c4-c4cc(C(F)(F)F)nn4C)[C@@H]3C)cccc2n1` [Example 1, (S)-(2,7-Dimethyl-3-(1-methyl-3-(trifluoromethyl)-1H-pyrazol-5-yl)-2,4,5,7-tetrahydro-6H-pyrazolo[3,4-c]pyridin-6-yl)(2-methylquinolin-5-yl)methanone] registered an IC50 of 35 nM.

In turn, `C[C@H]1c2nn(C)c(-c3cc(C(F)(F)F)nn3C)c2CCN1C(=O)c1ccc2ncsc2c1` [Example 56, (S)-Benzo[d]thiazol-6-yl(2,7-dimethyl-3-(1-methyl-3-(trifluoromethyl)-1H-pyrazol-5-yl)-2,4,5,7-tetrahydro-6H-pyrazolo[3,4-c]pyridin-6-yl)methanone] came in with an IC50 of 26 nM.

As to `Cn1nc(C(F)(F)F)cc1-c1c2c(nn1C)[C@@H]1CCC[C@H](C2)N1C(=O)c1cnc2cccc(F)c2c1` [Example 83, (5-Fluoroquinolin-3-yl)((5R,9S)-2-methyl-3-(1-methyl-3-(trifluoromethyl)-1H-pyrazol-5-yl)-4,5,6,7,8,9-hexahydro-2H-5,9-epiminocycloocta[c]pyrazol-10-yl)methanone], the concentration for half-maximal inhibition (IC50) came to 40 nM.

`Cc1cc(C(=O)N2CCc3c(nn(C)c3-c3cc(C(F)(F)F)nn3C)[C@@H]2C)c2ccccc2n1` [Example 9, (S)-(2,7-Dimethyl-3-(1-methyl-3-(trifluoromethyl)-1H-pyrazol-5-yl)-2,4,5,7-tetrahydro-6H-pyrazolo[3,4-c]pyridin-6-yl)(2-methylquinolin-4-yl)methanone] gave an IC50 of 12 nM.

On to `Cc1ccc2cc(C(=O)N3CCc4c(nn(C)c4-c4cnn(C)c4C(F)(F)F)[C@@H]3C)cc(C)c2n1` [Example 33, (S)-(2,7-Dimethyl-3-(1-methyl-5-(trifluoromethyl)-1H-pyrazol-4-yl)-2,4,5,7-tetrahydro-6H-pyrazolo[3,4-c]pyridin-6-yl)(2,8-dimethylquinolin-6-yl)methanone], for which half-maximal inhibition (IC50) was put at 6470 nM.

Consider `COc1cc(Cl)cc(C(=O)N2CCc3c(nn(C)c3-c3cc(C(F)(F)F)nn3C)[C@@H]2C)c1` [Example 39, (S)-(3-Chloro-5-methoxyphenyl)(2,7-dimethyl-3-(1-methyl-3-(trifluoromethyl)-1H-pyrazol-5-yl)-2,4,5,7-tetrahydro-6H-pyrazolo[3,4-c]pyridin-6-yl)methanone], for which the IC50 came out at 38 nM.

The molecule `C[C@H]1c2nn(C)c(-c3cnn(C)c3)c2CCN1C(=O)c1ccc2ncccc2c1` [Example 62, (S)-(2,7-Dimethyl-3-(1-methyl-1H-pyrazol-4-yl)-2,4,5,7-tetrahydro-6H-pyrazolo[3,4-c]pyridin-6-yl)(quinolin-6-yl)methanone] came in with an IC50 of 1940 nM.

Regarding `C[C@H]1c2nn(C)c(-c3cc(C(F)(F)F)nn3C)c2CCN1C(=O)c1cccc2nn(C)cc12` [Example 23, (S)-(2,7-Dimethyl-3-(1-methyl-3-(trifluoromethyl)-1H-pyrazol-5-yl)-2,4,5,7-tetrahydro-6H-pyrazolo[3,4-c]pyridin-6-yl)(2-methyl-2H-indazol-4-yl)methanone], the IC50 came out at 84 nM.

Turning to `Cc1cc(C(=O)N2CCc3c(nn(C)c3-c3cnn(C)c3C(F)(F)F)[C@@H]2C)cc(-n2nccn2)c1` [Example 53, (S)-(2,7-Dimethyl-3-(1-methyl-5-(trifluoromethyl)-1H-pyrazol-4-yl)-2,4,5,7-tetrahydro-6H-pyrazolo[3,4-c]pyridin-6-yl)(3-methyl-5-(2H-1,2,3-triazol-2-yl)phenyl)methanone], the IC50 was 810 nM.

`Cc1cc(C(=O)N2CCc3c(nn(C)c3-c3cc(C(F)(F)F)nn3C)[C@@H]2C)cc2scnc12` [Example 135, (S)-(2,7-Dimethyl-3-(1-methyl-3-(trifluoromethyl)-1H-pyrazol-5-yl)-2,4,5,7-tetrahydro-6H-pyrazolo[3,4-c]pyridin-6-yl)(4-methylbenzo[d]thiazol-6-yl)methanone] registered an IC50 of 22 nM.

Molecule `Cc1c(C(=O)N2CCc3c(nn(C)c3-c3cc(C(F)(F)F)nn3C)[C@@H]2C)ccc2ncsc12` [Example 133, (S)-(2,7-Dimethyl-3-(1-methyl-3-(trifluoromethyl)-1H-pyrazol-5-yl)-2,4,5,7-tetrahydro-6H-pyrazolo[3,4-c]pyridin-6-yl)(7-methylbenzo[d]thiazol-6-yl)methanone] registered an IC50 of 24 nM.

In the case of `C[C@H]1c2nn(C)c(-c3cnn(C)c3C(F)(F)F)c2CCN1C(=O)c1ccnc2c1cnn2C` [Example 32, (S)-(2,7-Dimethyl-3-(1-methyl-5-(trifluoromethyl)-1H-pyrazol-4-yl)-2,4,5,7-tetrahydro-6H-pyrazolo[3,4-c]pyridin-6-yl)(1-methyl-1H-pyrazolo[3,4-b]pyridin-4-yl)methanone], half-maximal inhibition (IC50) was put at 4560 nM.

For the molecule `Cc1ccc(C(=O)N2CCc3c(nn(C)c3-c3cc(C(F)(F)F)nn3C)[C@@H]2C)c(OC(F)(F)F)c1` [Example 110, (S)-(2,7-Dimethyl-3-(1-methyl-3-(trifluoromethyl)-1H-pyrazol-5-yl)-2,4,5,7-tetrahydro-6H-pyrazolo[3,4-c]pyridin-6-yl)(4-methyl-2-(trifluoromethoxy)phenyl)methanone], inhibition was half-maximal at 650 nM (IC50).

Molecule `C[C@H]1c2nn(C)c(-c3cc(C(F)(F)F)n(C)n3)c2CCN1C(=O)c1ccc2ncsc2c1` [Example 120, (S)-Benzo[d]thiazol-6-yl(2,7-dimethyl-3-(1-methyl-5-(trifluoromethyl)-1H-pyrazol-3-yl)-2,4,5,7-tetrahydro-6H-pyrazolo[3,4-c]pyridin-6-yl)methanone] came in with an IC50 of 46 nM.

For the molecule `C[C@H]1c2nn(C)c(-c3ccn(C(F)F)n3)c2CCN1C(=O)c1ccc2ncccc2c1` [Example 67, (S)-(3-(1-(Difluoromethyl)-1H-pyrazol-3-yl)-2,7-dimethyl-2,4,5,7-tetrahydro-6H-pyrazolo[3,4-c]pyridin-6-yl)(quinolin-6-yl)methanone], the IC50 was 1340 nM.

Regarding `COc1cccc(C(=O)N2CCc3c(nn(C)c3-c3cc(C(F)(F)F)nn3C)[C@@H]2C)c1` [Example 38, (S)-(2,7-Dimethyl-3-(1-methyl-3-(trifluoromethyl)-1H-pyrazol-5-yl)-2,4,5,7-tetrahydro-6H-pyrazolo[3,4-c]pyridin-6-yl)(3-methoxyphenyl)methanone], it took 73 nM to reach half-maximal inhibition (IC50).

For the molecule `Cc1cc(C(=O)N2CCc3c(nn(C)c3-c3cnn(C)c3C(F)(F)F)[C@@H]2C)c2cc(F)ccc2n1` [Example 34, (S)-(2,7-Dimethyl-3-(1-methyl-5-(trifluoromethyl)-1H-pyrazol-4-yl)-2,4,5,7-tetrahydro-6H-pyrazolo[3,4-c]pyridin-6-yl)(6-fluoro-2-methylquinolin-4-yl)methanone], half-maximal inhibition (IC50) was put at 2190 nM.

`C[C@H]1c2nn(C)c(-c3cc(C(F)(F)F)nn3C)c2CCN1C(=O)c1c[nH]c2cccc(F)c12` [Example 5, (S)-(2,7-dimethyl-3-(1-methyl-3-(trifluoromethyl)-1H-pyrazol-5-yl)-2,4,5,7-tetrahydro-6H-pyrazolo[3,4-c]pyridin-6-yl)(4-fluoro-1H-indol-3-yl)methanone] came in with an IC50 of 37 nM.

`COc1cccc(C(=O)N2[C@@H]3CC[C@H]2c2nn(C)c(-c4cc(C(F)(F)F)nn4C)c2C3)c1C` [Example 89, (3-Methoxy-2-methylphenyl)((5R,8S)-2-methyl-3-(1-methyl-3-(trifluoromethyl)-1H-pyrazol-5-yl)-2,4,5,6,7,8-hexahydro-5,8-epiminocyclohepta[c]pyrazol-9-yl)methanone] gave an IC50 of 66 nM.

For the molecule `C[C@H]1c2nn(C)c(-c3cnn(C(F)(F)F)c3)c2CCN1C(=O)c1ccc2ncccc2c1` [Example 64, (S)-(2,7-Dimethyl-3-(1-(trifluoromethyl)-1H-pyrazol-4-yl)-2,4,5,7-tetrahydro-6H-pyrazolo[3,4-c]pyridin-6-yl)(quinolin-6-yl)methanone], the IC50 stood at 79 nM.

On to `COc1nccc(C(=O)N2CCc3c(nn(C)c3-c3cc(C(F)(F)F)n(C)n3)[C@@H]2C)c1C` [Example 121, (S)-(2,7-Dimethyl-3-(1-methyl-5-(trifluoromethyl)-1H-pyrazol-3-yl)-2,4,5,7-tetrahydro-6H-pyrazolo[3,4-c]pyridin-6-yl)(2-methoxy-3-methylpyridin-4-yl)methanone], for which the IC50 was 83 nM.

Consider `C[C@H]1c2nn(C)c(-c3cc(C(F)(F)F)n(C)n3)c2CCN1C(=O)c1cccc2cnn(C)c12` [Example 117, (S)-(2,7-Dimethyl-3-(1-methyl-5-(trifluoromethyl)-1H-pyrazol-3-yl)-2,4,5,7-tetrahydro-6H-pyrazolo[3,4-c]pyridin-6-yl)(1-methyl-1H-indazol-7-yl)methanone], for which the IC50 turned out to be 160 nM.

As to `Cc1ccc2c(C(=O)N3[C@@H]4CCC[C@H]3c3nn(C)c(-c5cc(C(F)(F)F)nn5C)c3C4)nccc2n1` [Example 82, (2-Methyl-1,6-naphthyridin-5-yl)((5R,9S)-2-methyl-3-(1-methyl-3-(trifluoromethyl)-1H-pyrazol-5-yl)-4,5,6,7,8,9-hexahydro-2H-5,9-epiminocycloocta[c]pyrazol-10-yl)methanone], it took 74 nM to reach half-maximal inhibition (IC50).
